The values that follow come from patent publication US20160271248A1, “CXCR4 UP- AND DOWN-REGULATION FOR TREATMENT OF DISEASES OR DISORDERS” (priority 2013, published 2016).

Assay [1] relates to layer II/III pyramidal neurons of the prefrontal cortex. Description: In vivo dendritic spine analysis (Golgi stain, Neurolucida). Details: species or system rat.
The next assay relates to FHC. Description: Neuronal FHC protein levels by Western blot in cultured cortical neurons. Type of assay: cell-based, rat. The procedure:
Rat cortical neurons were cultured in the presence of a glial feeder layer, using the bilaminar cell culture model. Due to the presence of glia this culture system largely preserves the in vivo mechanisms of neuronal growth and differentiation, but also allows for direct studies on neurons, which were separated from glia at the time of analysis. Selected experiments were performed using glia-free neuronal cultures, as noted, using previously described protocols (Sengupta et al., 2009, J. Neurosci. 29:2534-2544). Neurons were transfected at the time of plating by Nucleofection (Amaxa), or after 8 days in culture by lipofectamine (Invitrogen). All experiments were conducted at 21 DIV, unless otherwise noted. HDAC4 and control (scrambled) siRNA were obtained from Ambion (s170677 and 4390843), and FHC/scrambled shRNA from GenScript (custom order; shRNA vector also expressed GFP).
Protease and phosphatases inhibitors were added to both buffers.
Rat cortical neurons were cultured in serum-free media in the presence of a glial feeder layer (Shimizu, et al., 2011, J. Vis. Exp. 57). This culture system largely preserves the in vivo environment, due to the presence of glia; however, it still enables direct investigation of neurons that can be separated by the glia before experiments. Selected studies were also performed in neurons grown in the absence of glia for the entire culture period, as indicated (Sengupta, et al., 2009, J. Neurosci. 29(8):2534-44). All experiments were conducted between 8-13 days in vitro (DIV).
Total protein extracts were obtained using standard protocols. […] The following antibodies were used: anti-FHC (3998, Cell Signaling Technology, 1:1,000) and anti-β-actin (A2066, Sigma-Aldrich, 1:5,000).
A general note: In western blotting, separated proteins are transferred to a membrane and probed.

The nature of assay [2]: Attention set-shifting task after gp120 infusions. It is filed as in vivo, rat. Particulars: SD rats, vs BSA. The procedure: Rats (200-400 g, male Sprague-Dawley, Taconic Farms) were stereotaxically implanted, under isoflurane anesthesia, with stainless-steel cannulas placed 0.96 mm posterior and 3.18 mm lateral to bregma, 3.47 mm below the surface of the cranium at an angle of 22°. Four stainless-steel screws (#0-80) were placed around the cannula and acrylic dental cement was used to anchor the cannula. Animals were allowed seven days to recover before receiving a bilateral infusion of 1 μl of gp120IIIB (50 ng/μl) once daily for seven days via a 10 microliter Hamilton Syringe, needle diameter 0.48 mm; infusion rate=0.374 microliters/minute. Animals were food restricted and began behavioral testing 21 days following the final infusion.
Animals were tested in an attention set-shifting task (Birrell & Brown, 2000, J. Neurosci. 20(11); 4320-4324). On day 1 of testing, food restricted rats are habituated to the testing chamber for 20 minutes. The testing chamber (17″×22″×10″ H) is divided lengthwise by a plexiglass wall with a guillotine-style door creating a waiting area (one-third of the chamber), and a testing area (remaining two-thirds of the chamber). The far wall of the testing area (furthest from the waiting area) is bisected by a plexiglass divider that extended 9.25 inches; thus creating two distinct yet easily accessible sides of the testing area. The following day, rats are trained to dig in terra cotta pots to obtain a food reward (Frosted Cheerio). The food reward is progressively buried deeper in the pots, filled with corn cob bedding, until the rat reliably digs to retrieve the food reward. On day 3, rats undergo exemplar training, discriminating between sensory cues to determine which pot contains the food reward. […] If the rat begins digging in the incorrect pot, the pots are removed from the testing area, the rat is placed back into the waiting area, and the trial is recorded as incorrect. […]

The next assay deals with IL-1β. Description: ELISA of secreted IL-1β in neuronal/glial co-cultures. Conditions: 200 pM for 24 hours; vs controls. It is filed as cell-based, rat. As to the method: (§1) TNF-α and IL-1β secreted protein levels were determined from co-culture supernatants using commercially available rat TNF-α and IL-1β kits (Quantikine, R&D Systems). The assays were performed following the manufacturer's instructions. Absorbance was read at 450 nm using Wallac Victor2 1420 Multilabel Counter (PerkinElmer). The concentration of secreted TNF-α and IL-1β are expressed as picograms per milliliter (pg/mL); values were normalized to total protein content for each well.

The next assay relates to TNF-α. In words: ELISA of secreted TNF-α in neuronal/glial co-cultures. Conditions: 200 pM for 24 hours; vs controls. It is filed as cell-based, rat. As to the method: as §1

For the substance “gp120IIIB: X4-using HIV-1 envelope protein gp120, from Immunodiagnostics”, in assay [1] (gp120-treated rats vs BSA), the average dendrite length entry is “no changes in the average dendrite length” and the “number of branching points” value is “reduced number of branching points”. For the same substance, the spine density result in assay [1] (gp120IIIB 50 ng/μl, 1 μl bilateral infusion once daily for seven days, vs BSA) was “reduction of spine density in layer II/III PFC neurons”. Also, the “neuronal expression of FHC” value in the assay with FHC (in the presence of glial feeder layer, 200 pM, up to 24 hr) was “able to increase neuronal expression of FHC”. Further, in the assay with FHC (pure neuronal cultures, 200 pM for 3, 6, or 24 hours), the “neuronal FHC protein levels” value is “only transiently increased FHC”. Further, in assay [2] (testing 21 days after final infusion), the attention set-shifting performance entry is “impaired attention set-shifting performance”. Further, in assay [2], the extra-dimensional shifts result is listed as “impaired in extra-dimensional shifts” and the “reversal learning (Reversal 2, Reversal 3)” value is given as “impaired in the reversal learning component of the task”. The “secreted IL-1β levels in culture media” value in the assay on IL-1β is on record as “significantly higher”. In addition, the “secreted TNF-α levels in culture media” value in the assay with TNF-α is listed as “significantly higher”.
